Legend:
[1] = test system: U87 cells xenograft; test: Subcutaneous U87 xenograft model of GBM; type: in vivo, CD1 nude mice; details: 50 mg/kg i.p.
Protocol: Male CD1 nude mice (Charles River, Milan, Italy) were maintained under the guidelines established by our Institution (University of L’Aquila), complying with the Declaration of Helsinki, national and international laws and policies (European Economic Community Council Directive 86/609; Italian Legislative Decree 4.03.2014 n.26, Gazzetta Ufficiale della Repubblica Italiana no. 61, 4 March 2014). Before any invasive manipulation, mice were anesthetized with a mixture of ketamine (25 mg/mL)/xylazine (5 mg/mL). Tumor grafts were obtained by injecting s.c. 1 × 10^6 U87 cells in 100 µL of 12 mg/mL Matrigel (Becton Dickinson, Franklin Lakes, NJ, USA). Tumor growth was monitored daily by measuring the average tumor diameter, and mice were divided into experimental groups when the tumor reached a volume of approximately 50 mm^3. The tumor volume was calculated according to the formula 4/3πr^3, with r representing the […]. BA103 was administered i.p. in a saline solution containing 10% v/v DMSO and 10% v/v TWEEN 80. Each mouse received 50 mg/kg BA103, or vehicle, three times per week. Previous experiments with the same settings have permitted choosing the endpoint of 21 days considering the maximum mean volume of tumors in control mice that was compatible with no signs of distress. […]
Next, we tested our compound on U87 cells in a xenograft model of GBM. […] During the experiment, tumor growth was monitored measuring tumor volume, and at the end point, 21 days after the start point, mice were euthanized, and tumors were recovered and measured. […] Tumor masses were also analyzed for the expression of DDX3X, and all xenografts resulted positive for DDX3X expression, from both control and treated groups, with a spotted staining pattern (Figure 9D).
Figure 9 Biological activity of BA103 in xenograft models of GBM. […] Tumor growth was monitored by measuring tumor volume (B), and at the end point, tumors were weighed, and the resulting mean values for each group are reported in the histogram (C). […] Mice were monitored for two months after U87 cells inoculation.

[2] = test system: panel of cancer cell lines (Du-145, PC3, HepG2, Huh-7, HN6, U87 and U231); test: Cytotoxicity screen on panel of cancer cell lines; type: cell-based; details: 72 h of treatment
Protocol: For CellTiter 96® Aqueous One Solution Cell Proliferation Assay (MTS) (Promega, Madison, WI, USA), cells were seeded at 5 × 10^3 per well in 96-well plates in quadruplicate together a control with no cells to evaluate the background. After 24 h, the culture medium was removed, and fresh medium containing increasing concentrations of chemical compounds was added to cells. The fixed final concentrations were 0.1 μM, 1 μM, 10 μM, and 100 μM. DMSO was the vehicle used for dilution of the compounds, and its final concentration on cells was less than 0.2%. Medium-only containing wells were included as controls. […] After 3 h at 37 °C in a humidified, 5% CO2 atmosphere, the absorbance at 492 nm was recorded using an EZREAD400 (Biochrom, Cambridge, United Kingdom) plate reader. The average 490 nm absorbance from the “no cell” control wells was subtracted from all other values to yield background-corrected absorbance. Dose–response curves and CC50 values have been calculated by plotting the absorbance data as a function of inhibitor concentrations and fitting the data by least-squares nonlinear regression, according to the method of Marquardt–Levenberg, with the computer program GraphPad Prism 6.0.
Cells were incubated with a scalar concentration of DDX3X inhibitors, and after 72 h of treatment, cell viability was assessed by cytotoxicity assay. […]

Row | Compound | tumor growth (tumor volume) vs control ([1]; from the second week) | reduction of mean tumor mass with respect to control group ([1]; three times per week for two weeks, end point 21 days) [%] | signs of distress in the receiving animal ([1]; two consecutive weeks) | growth inhibition in all the cell lines tested [2]
1 | CCCCc1cn(-c2ccc(NC(=O)Nc3ccccc3C(F)(F)F)cc2)nn1 [BA103, 1-(4-(4-Butyl-1H-1,2,3-triazol-1-yl)phenyl)-3-(2-(trifluoromethyl)phenyl)urea] | reduction in tumor growth was evident | ~60 | absence of any visible sign of distress | –
2 | CCCCc1nnc(-c2ccc(NC(=O)Nc3ccccc3C(F)(F)F)cc2)[nH]1 [Compound 4, 1-(4-(5-Butyl-4H-1,2,4-triazol-3-yl)phenyl)-3-(2-(trifluoromethyl)phenyl)urea] | – | – | – | showed inhibition growth capability in all the cell lines tested
